Here are results for two compounds from publication PMC9685055, “Biological activity of new bioactive steroids deriving from biotransformation of cortisone” (Microbial Cell Factories, 2022).

SMILES strings stand for the structures.

Experiment [1] deals with p65 NF-κB nuclear translocation in HaCaT cells. Description: TNFα-induced p65 NF-κB nuclear translocation, immunofluorescence. It counts as cell-based. To be noted: 10 μM pretreatment 24 h, then 10 ng/mL TNFα 1 h. As for the experimental part:
(§1) HaCaT cells were cultured with Dulbecco’s modified Eagle’s medium High Glucose (Lonza, Milan, Italy) supplemented with 10% FBS, 100 U/mL penicillin, 100 μg/mL streptomycin and 2 mM L-glutamine as previously described. Cells were maintained in a humidified incubator at 37 °C with 5% CO2 and incubated until the monolayer was 80% confluent. Medium was changed every 2 days.
(§2) HaCaT cells were pretreated with or without 10 μM of both SCA and SCB for 24 h. Stock solutions of the two compounds were prepared in DMSO immediately before use and diluted to the final concentration in the culture medium. In some sets of experiments, betamethasone-17-valerate (10 µg/mL) served as a positive control; dimethyl sulfoxide (DMSO) served as a solvent control. After the pretreatments, cells were stimulated with 10 ng/mL TNFα for 1 h to induce the NFκB signaling pathway. Then, media were replaced with fresh culture medium. Cells and supernatants were collected at different time points for each set of experiments as described below.
Briefly, HaCaT cells were seeded on coverslips at a density of 1 × 10^5 cell/mL and incubated with DMEM high glucose supplemented with FBS 10%. Then, HaCaT cells were treated as indicated above. At the end of the proinflammatory stimulus with TNFα, cells were fixed in 4% paraformaldehyde in PBS for 30 min at 4 °C as previously described. HaCaT cells were permeabilized for 5 min at RT with PBS containing 0.2% Triton X-100. After the blocking with 1% BSA in PBS at RT for 1 h, HaCaT cells were incubated with p65 NF-κB primary antibody (1:100, sc-372; Santa Cruz Biotechnology, Inc., Dallas, Texas, USA) in PBS containing 0.5% BSA at 4 °C overnight. After washing, coverslips were incubated with appropriate secondary antibody for 1 h at RT. Nuclei were stained with 1 μg/mL DAPI (Sigma- Aldrich, Italy) for 1 min. […] Fluorescence was examined using an Epifluorescence microscope (Nikon Eclipse E800; Nikon Corporation, Surrey, UK) equipped with a plan apochromat 100 × 0.5 − 1.3 oil immersion objective and a mercury lamp source.

Experiment [2] concerns IL-8 gene expression in TNFα-stimulated HaCaT cells. Nature of the experiment: TNFα-induced IL-8 gene expression, real-time PCR. To be noted: 10 μM pretreatment 24 h, then 10 ng/mL TNFα 1 h. It counts as cell-based. As for the experimental part: as §1, §2
Quantitative real-time PCR was carried out as described in detail previously. Briefly, HaCaT cells were treated as indicated above and harvested for RNA extraction 3 h after the end of the proinflammatory stimulus with TNFα. […] Quantitative real-time PCR (qPCR) was performed using SYBR green on the CFX Multicolor real-time PCR detection system (Bio-Rad, Italy). […]

Experiment [3] concerns IL-1α secretion in TNFα-stimulated HaCaT cells. Description: TNFα-induced IL-1α secretion, ELISA. It counts as cell-based, human. To be noted: 10 μM pretreatment 24 h, then 10 ng/mL TNFα 1 h, supernatant 24 h later. As for the experimental part:
as §1
HaCaT cells were pretreated with or without 10 μM of both SCA and SCB for 24 h. Stock solutions of the two compounds were prepared in DMSO immediately before use and diluted to the final concentration in the culture medium. In some sets of experiments, betamethasone-17-valerate (10 µg/mL) served as a positive control; dimethyl sulfoxide (DMSO) served as a solvent control. After the pretreatments, cells were stimulated with 10 ng/mL TNFα for 1 h to induce the NFκB signaling pathway. Then, media were replaced with fresh culture medium. […]
IL-1α secretion, after the treatment with 10 and 20 µM of each compound and together at the same concentrations, was assayed by a commercially available ELISA kit (Thermo Scientific, Italy). […] The optical absorbance was measured with a spectrophotometer microplate reader at 450 nm and correction at 530 nm. Final concentrations were calculated by interpolation with a standard curve of Recombinant Human IL-1α provided by the kit and results expressed as pg/mL.
Background: In an ELISA, binding on a coated surface is turned into a signal by an enzyme label.

Experiment [4] deals with T1, cyclooxygenase (COX) (Ovis aries, UniProt P05979).
T1 construct: purchased Cayman 700200
T1 sequence (P05979 25-600): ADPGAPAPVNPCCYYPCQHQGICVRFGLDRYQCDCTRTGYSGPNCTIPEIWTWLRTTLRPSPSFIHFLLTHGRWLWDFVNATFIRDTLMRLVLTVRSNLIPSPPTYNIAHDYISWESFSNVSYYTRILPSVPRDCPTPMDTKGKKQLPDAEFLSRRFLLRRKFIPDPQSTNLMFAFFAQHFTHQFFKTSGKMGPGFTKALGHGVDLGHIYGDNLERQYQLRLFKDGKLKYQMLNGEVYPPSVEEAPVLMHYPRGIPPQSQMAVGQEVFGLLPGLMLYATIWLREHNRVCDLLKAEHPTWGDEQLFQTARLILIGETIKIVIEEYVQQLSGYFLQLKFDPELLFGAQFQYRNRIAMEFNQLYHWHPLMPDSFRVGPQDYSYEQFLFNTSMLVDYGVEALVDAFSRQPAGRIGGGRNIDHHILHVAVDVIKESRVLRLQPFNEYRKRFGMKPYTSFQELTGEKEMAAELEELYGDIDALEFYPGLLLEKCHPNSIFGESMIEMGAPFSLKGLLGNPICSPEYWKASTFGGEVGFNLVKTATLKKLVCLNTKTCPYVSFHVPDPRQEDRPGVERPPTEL
Description: Cyclooxygenase inhibitory assay (fluorescence COX activity kit). It counts as biochemical. The following applies: purified COX preparation, 0.1, 1, 10 and 100 µM, 5 min at 25 °C.
Description: Cyclooxygenase (COX) activity assay was determined by using a fluorescence COX activity assay kit (Cayman, No. 700200) for detecting COX-1 and COX-2 activity in purified enzyme and tissue homogenate preparations. The assay was conducted by monitoring the appearance of fluorescent compound resofurin in accordance to the supplier recommendation. Aspirin (acetylsalicylic acid; 50 µM) served as positive control. The test compounds were dissolved in 1–2% DMSO (v/v) at 4 different concentrations (0.1, 1, 10 and 100 µM) and added to a purified COX preparation. A 1–2% DMSO solution was added to control plates. The plates were shaken for a few seconds and incubated for 5 min at 25 °C. The fluorescence was measured by using an excitation wavelength of 540 nm and an emission wavelength of 590 nm. Average fluorescent values were calculated for all the samples (n = 3/group) in order to determine the percentage of inhibition in respect to control (i.e. untreated) plates.

Regarding `Cc1ccc(O)c2c1CCC1C3CC[C@](O)([C@H](O)CO)[C@@]3(C)CC(=O)[C@@]21O` (stereo partly drawn) [SCB, 1,9β,17,20β,21‐ pentahydoxy‐4‐methyl‐19‐nor‐9β‐pregna‐1,3,5(10)‐trien‐11‐one], the “effect on TNFα-stimulated translocation of p65 to the nucleus” value in experiment [1] is “showed the ability in counteracting the proinflammatory stimulus”. Also, in experiment [2], the “effect on TNFα-triggered IL-8 mRNA upregulation” value is on record as “completely abolish”. For the same compound, the “effect on TNFα-triggered IL-1α release” value in experiment [3] was “markedly inhibited”. Moreover, in experiment [4], the “effect on COX activity” value was “inhibited COX activity at all concentrations tested in a dose-dependent trend”.
As to `Cc1ccc(O)c2c1CCC1C3CC[C@](O)(C(=O)CO)[C@@]3(C)CC(=O)[C@@]21O` (stereo partly drawn) [SCA, 1,9β,17,21‐tetrahydoxy‐4‐methyl‐19‐nor‐9β‐pregna‐1,3,5(10)‐trien‐11,20‐dione], the “effect on TNFα-stimulated translocation of p65 to the nucleus” value in experiment [1] is “barely affected”. Moreover, the “effect on TNFα-triggered IL-8 mRNA upregulation” value in experiment [2] is “completely abolish”. Besides, the “effect on TNFα-triggered IL-1α release” value in experiment [3] is “markedly inhibited”. Moreover, in experiment [4], the “effect on COX activity” value is “barely affected COX activity only at the lower concentration tested (0.1 µM)”.
